Measured values taken from the NIST ThermoML archive (doi:10.1021/je030163d).

Assay: xn = mol fraction of the nth substance listed
Conditions: 101.3 kPa, Liquid; for viscosity: Capillary tube (Ostwald / Ubbelohde) method; for mass density: Pycnometric method

CC(=O)c1ccccc1 [acetophenone] + CN(C)C=O
Conditions	mass density, 298.15 K [kg/m3]	mass density, 303.15 K [kg/m3]	mass density, 308.15 K [kg/m3]	mass density, 313.15 K [kg/m3]	viscosity, 298.15 K [mPa·s]	viscosity, 303.15 K [mPa·s]	viscosity, 308.15 K [mPa·s]	viscosity, 313.15 K [mPa·s]
x2 = 0	1024.1	1019.9	1015.7	1011.2	1.68	1.54	1.41	1.31
x2 = 0.1123	1018	1013.9	1009.7	1005.2	1.584	1.453	1.33	1.238
x2 = 0.1641	1015.6	1011.4	1007.2	1002.7	1.544	1.418	1.299	1.206
x2 = 0.308	1008.8	1004.6	1000.4	995.9	1.43	1.314	1.205	1.123
x2 = 0.4328	1001	996.8	992.5	988	1.328	1.221	1.122	1.047
x2 = 0.5286	994.2	989.9	985.6	981.1	1.246	1.148	1.056	0.987
x2 = 0.6256	985.8	981.4	977.1	972.5	1.156	1.069	0.984	0.922
x2 = 0.7165	977.2	972.8	968.4	963.8	1.072	0.995	0.918	0.862
x2 = 0.7943	969	964.5	960	955.3	0.999	0.93	0.861	0.81
x2 = 0.9378	952.5	947.9	943.3	938.5	0.863	0.809	0.755	0.714
